From PMC6155665, “Antiplasmodial Activity, Cytotoxicity and Structure-Activity Relationship Study of Cyclopeptide Alkaloids” (Molecules : A Journal of Synthetic Chemistry and Natural …, 2017)
Read-outs that look alike come from different tables or passages of the source.

Experiments:
P. falciparum strain K1 [1] = assay: In vitro antiplasmodial activity; format: cell-based; conditions: Plasmodium falciparum
Method: (§1) The antiplasmodial and cytotoxic activity determinations of all cyclopeptide alkaloids were performed as reported before. Each experiment was performed at least in triplicate and the average IC50 values were calculated.

[2] = Cytotoxicity against MRC-5 cells; conditions: human
Method: as §1

Plasmodium falciparum = conditions: cited from earlier work; for IC50: read-out: antiplasmodial IC50
P. falciparum strain K1 [3] = test system: P. falciparum strain K1; parameters: method as in PMID 27351950, PMID 27933893; conditions: previously reported by the same group, same test conditions; cited from earlier work
MRC-5 cells = conditions: cited from earlier work
[4] = strain K1, average of at least triplicate, read-out: P. falciparum K1 IC50
[5] = read-out: MRC-5 IC50, cytotoxicity, previously reported by the same group
[6] = corresponding to the μg/mL values, Suksamrarn et al.

Molecule: CCN(CC)CCCC(C)Nc1ccnc2cc(Cl)ccc12 (stereo not shown) [Chloroquine, reference compound]
- IC50 (P. falciparum strain K1 [1]; K1, read-out: P. falciparum K1 IC50): 0.15 µM

Molecule: CCC(C)[C@@H]1NC(=O)[C@@H]2[C@H](CCN2C(=O)[C@@H](NC)C(C)CC)Oc2ccc(cc2)/C=C\NC1=O (stereo partly shown) [Compound 1, Nummularine-U]
- IC50 (P. falciparum strain K1 [1]; [4]): 23 ± 8.5 µM
- IC50 ([2]; MRC-5 cells): > 64 µM

Molecule: CN[C@@H](C)C(=O)N[C@H](C(=O)N1CC[C@@H]2Oc3ccc(cc3)/C=C\NC(=O)[C@H](Cc3ccccc3)NC(=O)[C@H]21)C(C)C [Compound 2, Mauritine-F]
- IC50 (P. falciparum strain K1 [1]; [4]): 34.2 ± 9.14 µM
- IC50 [2]: > 64 µM

Molecule: CCC(C)[C@@H]1NC(=O)[C@@H]2[C@H](CCN2C(=O)[C@@H](NC(=O)[C@H](Cc2ccccc2)N(C)C)C(C)CC)Oc2ccc(O)c(c2)/C=C\NC1=O (stereo partly shown) [Compound 3, Spinanine-B]
- IC50 (P. falciparum strain K1 [1]; [4]): 2.1 ± 0.3 µM
- IC50 [2]: > 64 µM

Molecule: CC(C)C[C@@H]1NC(=O)[C@@H](NC(=O)[C@H](C(C)O)N(C)C)[C@H](c2ccccc2)Oc2ccc(cc2)/C=C\NC1=O (stereo partly shown) [Compound 4, Nummularine-E]
- IC50 (P. falciparum strain K1 [1]; [4]): > 64 µM
- IC50 ([2]; MRC-5 cells): > 64 µM

Molecule: CCC(C)[C@@H]1NC(=O)[C@@H]2[C@H](CCN2C(=O)[C@@H](NC(=O)[C@H](Cc2ccccc2)N(C)C)C(C)CC)Oc2ccc(cc2)/C=C\NC1=O (stereo partly shown) [Compound 5, Amphibine-D]
- IC50 (P. falciparum strain K1 [1]; [4]): 8.9 ± 1.5 µM
- IC50 [2]: > 64 µM

Molecule: CN[C@@H](C)C(=O)N[C@H](C(=O)N1CC[C@@H]2Oc3ccc(OC)c(c3)/C=C\NC(=O)[C@H](C(C)C)NC(=O)[C@H]21)C(C)C [Compound 6, Jubanine-F]
- IC50 (P. falciparum strain K1 [1]; [4]): 12.8 ± 2.9 µM
- IC50 [2]: > 64 µM

Molecule: CCC(C)[C@H](NC(=O)[C@H](C)NC)C(=O)N1CC[C@@H]2Oc3ccc(OC)c(c3)/C=C\NC(=O)[C@H](C(C)C)NC(=O)[C@H]21 (stereo partly shown) [Compound 7, Jubanine-G]
- IC50 (P. falciparum strain K1 [1]; [4]): 4.7 ± 2.4 µM
- IC50 [2]: > 64 µM

Molecule: CN[C@@H](C)C(=O)N[C@H](C(=O)N1CC[C@@H]2Oc3ccc(OC)c(c3)/C=C\NC(=O)[C@H](Cc3ccccc3)NC(=O)[C@H]21)C(C)C [Compound 8, Nummularine-B]
- IC50 (P. falciparum strain K1 [1]; [4]): 3.6 ± 1.3 µM
- IC50 [2]: > 64 µM
- antiplasmodial activity against Plasmodium falciparum (in words) (Plasmodium falciparum; Panseeta et al.): moderately active
- IC50 (Plasmodium falciparum; Panseeta et al.): 10.3 µM

Molecule: CC[C@H](C)[C@@H]1NC(=O)[C@@H](NC(=O)[C@H](CC(C)C)N(C)C)[C@H](C(C)C)Oc2ccc(cc2)/C=C\NC1=O [Compound 9, Adouetine-X]
- IC50 (P. falciparum strain K1 [1]; [4]): 7.5 ± 1.8 µM
- IC50 ([2]; MRC-5 cells): 19.1 ± 11.9 µM

Molecule: CCC(C)[C@@H](C(=O)N[C@@H]1C(=O)N[C@@H](CC(C)C)C(=O)N/C=C\c2ccc(cc2)O[C@H]1C(C)C)N(C)C (stereo partly shown) [Compound 10, Frangulanine]
- IC50 (P. falciparum strain K1 [1]; [4]): 14.9 ± 5.2 µM
- IC50 ([2]; MRC-5 cells): 30.6 ± 6.5 µM

Molecule: CCC(C)[C@@H](C(=O)N[C@H](C(=O)N[C@@H]1C(=O)N[C@@H](Cc2c[nH]c3ccccc23)C(=O)NCC(=O)c2ccc(cc2)OC1(C)C)C(C)C)N(C)C (stereo partly shown) [Compound 11, Hymenocardine]
- IC50 (P. falciparum strain K1 [3]): 16.4 ± 6.8 µM
- IC50 (MRC-5 cells): 51.1 ± 17.2 µM

Molecule: CCC(C)[C@@H](C(=O)N[C@H](C(=O)N[C@@H]1C(=O)N[C@@H](Cc2c[nH]c3ccccc23)C(=O)NCC(O)c2ccc(cc2)OC1(C)C)C(C)C)N(C)C (stereo partly shown) [Compound 12, Hymenocardinol]
- IC50 (P. falciparum strain K1 [3]): 17.5 ± 8.7 µM
- IC50 (MRC-5 cells): > 64 µM

Molecule: CCC(C)[C@@H](C(=O)N[C@H](C(=O)N[C@@H]1C(=O)N[C@@H](Cc2c[nH]c3ccccc23)C(=O)NCC(=O)c2ccc(cc2)OC1(C)C)C(C)C)[N+](C)(C)[O-] (stereo partly shown) [Compound 13, Hymenocardine N-oxide]
- IC50 (P. falciparum strain K1 [3]): 12.2 ± 6.6 µM
- IC50 (MRC-5 cells): > 64 µM

Molecule: CCC(C)[C@H](NC(=O)[C@H](C(C)CC)N(C)C)C(=O)N[C@@H]1C(=O)N[C@@H](Cc2c[nH]cn2)C(=O)NCC(=O)c2ccc(cc2)O[C@H]1C(C)C (stereo partly shown) [Compound 14, Hymenocardine-H]
- IC50 (P. falciparum strain K1 [3]): 27.9 ± 16.5 µM
- IC50 (MRC-5 cells): > 64 µM

Molecule: CCC(C)[C@@H]1NC(=O)[C@@H]2[C@H](CCN2C(=O)[C@H](Cc2c[nH]c3ccccc23)N(C)C)Oc2ccc(OC)c(c2)/C=C\NC1=O (stereo partly shown) [Compound 15, Nummularine-R]
- IC50 (P. falciparum strain K1 [3]): 3.2 ± 2.6 µM
- IC50 (MRC-5 cells; [5]): 30.6 ± 4 µM

Molecule: CCC(C)[C@@H]1NC(=O)[C@@H]2[C@H](CCN2C(=O)[C@H](Cc2c[nH]c3ccccc23)N(C)C)Oc2ccc(O)c(c2)/C=C\NC1=O (stereo partly shown) [Compound 16, O-desmethylnummularine-R]
- IC50 (P. falciparum strain K1 [3]): 7.1 ± 1.6 µM
- IC50 (MRC-5 cells; [5]): > 64 µM

Molecule: CCC(C)[C@@H]1NC(=O)[C@@H]2[C@H](CCN2C(=O)[C@H](Cc2c[nH]c3ccccc23)N(C)C)Oc2ccc(cc2)/C=C\NC1=O (stereo partly shown) [Compound 17, Hemsine-A]
- IC50 (P. falciparum strain K1 [3]): 13.6 ± 9.3 µM
- IC50 (MRC-5 cells; [5]): > 64 µM

Molecule: CCC(C)[C@@H]1NC(=O)[C@@H]2[C@H](CCN2C(=O)[C@H](C(C)CC)N(C)C)Oc2ccc(cc2)/C=C\NC1=O (stereo partly shown) [Compound 18, Ramosine-A]
- IC50 (P. falciparum strain K1 [3]): > 32 µM
- IC50 (MRC-5 cells; [5]): > 64 µM

Molecule: O=C1N/C=C\c2ccc(cc2)O[C@@H](c2ccccc2)[C@H](NC(=O)[C@@H]2CCCN2C(=O)/C=C/c2ccccc2)C(=O)N[C@H]1C(O)c1ccccc1 (stereo partly shown) [Compound 19, Oxyphylline-F]
- IC50 (P. falciparum strain K1 [3]): 7.4 ± 3 µM
- IC50 (MRC-5 cells; [5]): 31.2 ± 1.4 µM

Molecule: CCC(C)[C@H](C(=O)N[C@@H](CC(C)C)C(=O)N1CC[C@@H]2Oc3ccc(OC)c(c3)/C=C\NC(=O)[C@@H]3CCCN3C(=O)[C@H]21)N(C)C (stereo partly shown) [ziziphine-N]
- antiplasmodial IC50 (Plasmodium falciparum; Suksamrarn et al.): 3.92 µg/mL
- IC50 (Plasmodium falciparum; [6]): 6.4 µM

Molecule: CCC(C)[C@@H](NC)C(=O)N[C@@H](CC(C)C)C(=O)N1CC[C@@H]2Oc3ccc(OC)c(c3)/C=C\NC(=O)[C@@H]3CCCN3C(=O)[C@H]21 (stereo partly shown) [ziziphine-O]
- antiplasmodial activity (in words) (Plasmodium falciparum; Suksamrarn et al.): not active

Molecule: CCC(C)[C@H](C(=O)N[C@H](C(=O)N1CC[C@@H]2Oc3ccc(OC)c(c3)/C=C\NC(=O)[C@@H]3CCCN3C(=O)[C@H]21)C(C)C)N(C)C (stereo partly shown) [ziziphine-Q]
- antiplasmodial IC50 (Plasmodium falciparum; Suksamrarn et al.): 3.5 µg/mL
- IC50 (Plasmodium falciparum; [6]): 5.9 µM

Molecule: mauritine-L
- antiplasmodial activity against Plasmodium falciparum (in words) (Plasmodium falciparum; Panseeta et al.): not

Molecule: nummularine-B methiodide
- antiplasmodial activity against Plasmodium falciparum (in words) (Plasmodium falciparum; Panseeta et al.): not

Molecule: ziziphine-P
- antiplasmodial activity (in words) (Plasmodium falciparum; Suksamrarn et al.): not active
